# Measured values as given in ChEMBL document CHEMBL3046620, “Resistance monitoring to deltamethrin and chlorpyriphos-ethyl in 13 populations of Typhlodromus pyri Scheuten (Acari: Phytoseiidae) from vineyards in the southwest of France” (2008).
# Legend:
# Type in all cases: functional
# [1] = test system: Typhlodromus pyri; test: Miticidal activity against compound treated Phaseolus vulgaris leaf-fed female Typhlodromus pyri Scheuten 13 assessed as mortality at 855 mg/l sprayed on leaf disks measured after 3 days; conditions: Scheuten 13, foliar, 72 h
# [2] = test system: Typhlodromus pyri; test: Miticidal activity against compound treated Phaseolus vulgaris leaf-fed female Typhlodromus pyri Scheuten 4 assessed as mortality at 855 mg/l sprayed on leaf disks measured after 3 days; conditions: Scheuten 4, foliar, 72 h
# [3] = test system: Typhlodromus pyri; test: Miticidal activity against compound treated Phaseolus vulgaris leaf-fed female Typhlodromus pyri Scheuten 3 assessed as mortality at 855 mg/l sprayed on leaf disks measured after 3 days; conditions: Scheuten 3, foliar, 72 h
# [4] = test system: Typhlodromus pyri; test: Miticidal activity against compound treated Phaseolus vulgaris leaf-fed female Typhlodromus pyri Scheuten 7 assessed as mortality at 855 mg/l sprayed on leaf disks measured after 3 days; conditions: Scheuten 7, foliar, 72 h
# [5] = test system: Typhlodromus pyri; test: Miticidal activity against compound treated Phaseolus vulgaris leaf-fed female Typhlodromus pyri Scheuten 10 assessed as mortality at 855 mg/l sprayed on leaf disks measured after 3 days; conditions: Scheuten 10, foliar, 72 h
# [6] = test system: Typhlodromus pyri; test: Miticidal activity against compound treated Phaseolus vulgaris leaf-fed female Typhlodromus pyri Scheuten 9 assessed as mortality at 855 mg/l sprayed on leaf disks measured after 3 days; conditions: Scheuten 9, foliar, 72 h
# [7] = test system: Typhlodromus pyri; test: Miticidal activity against compound treated Phaseolus vulgaris leaf-fed female Typhlodromus pyri Scheuten 5 assessed as mortality at 855 mg/l sprayed on leaf disks measured after 3 days; conditions: Scheuten 5, foliar, 72 h
# [8] = test system: Typhlodromus pyri; test: Miticidal activity against compound treated Phaseolus vulgaris leaf-fed female Typhlodromus pyri Scheuten 6 assessed as mortality at 855 mg/l sprayed on leaf disks measured after 3 days; conditions: Scheuten 6, foliar, 72 h
# [9] = test system: Typhlodromus pyri; test: Miticidal activity against compound treated Phaseolus vulgaris leaf-fed female Typhlodromus pyri Scheuten 2 assessed as mortality at 855 mg/l sprayed on leaf disks measured after 3 days; conditions: Scheuten 2, foliar, 72 h
# [10] = test system: Typhlodromus pyri; test: Miticidal activity against compound treated Phaseolus vulgaris leaf-fed female Typhlodromus pyri Scheuten 11 assessed as mortality at 855 mg/l sprayed on leaf disks measured after 3 days; conditions: Scheuten 11, foliar, 72 h
# [11] = test system: Typhlodromus pyri; test: Miticidal activity against compound treated Phaseolus vulgaris leaf-fed female Typhlodromus pyri Scheuten 8 assessed as mortality at 855 mg/l sprayed on leaf disks measured after 3 days; conditions: Scheuten 8, foliar, 72 h
# [12] = test system: Typhlodromus pyri; test: Miticidal activity against compound treated Phaseolus vulgaris leaf-fed female Typhlodromus pyri Scheuten 1 assessed as mortality at 855 mg/l sprayed on leaf disks measured after 3 days; conditions: Scheuten 1, foliar, 72 h
# [13] = test system: Typhlodromus pyri; test: Miticidal activity against compound treated Phaseolus vulgaris leaf-fed female Typhlodromus pyri Scheuten 12 assessed as mortality at 855 mg/l sprayed on leaf disks measured after 3 days; conditions: Scheuten 12, foliar, 72 h
# [14] = test system: Typhlodromus pyri; test: Miticidal activity against compound treated Phaseolus vulgaris leaf-fed female Typhlodromus pyri Scheuten 9 assessed as mortality at 17.5 mg/l sprayed on leaf disks measured after 3 days; conditions: Scheuten 9, foliar, 72 h
# [15] = test system: Typhlodromus pyri; test: Miticidal activity against compound treated Phaseolus vulgaris leaf-fed female Typhlodromus pyri Scheuten 6 assessed as mortality at 17.5 mg/l sprayed on leaf disks measured after 3 days; conditions: Scheuten 6, foliar, 72 h
# [16] = test system: Typhlodromus pyri; test: Miticidal activity against compound treated Phaseolus vulgaris leaf-fed female Typhlodromus pyri Scheuten 8 assessed as mortality at 17.5 mg/l sprayed on leaf disks measured after 3 days; conditions: Scheuten 8, foliar, 72 h
# [17] = test system: Typhlodromus pyri; test: Miticidal activity against compound treated Phaseolus vulgaris leaf-fed female Typhlodromus pyri Scheuten 4 assessed as mortality at 17.5 mg/l sprayed on leaf disks measured after 3 days; conditions: Scheuten 4, foliar, 72 h
# [18] = test system: Typhlodromus pyri; test: Miticidal activity against compound treated Phaseolus vulgaris leaf-fed female Typhlodromus pyri Scheuten 12 assessed as mortality at 17.5 mg/l sprayed on leaf disks measured after 3 days; conditions: Scheuten 12, foliar, 72 h
# [19] = test system: Typhlodromus pyri; test: Miticidal activity against compound treated Phaseolus vulgaris leaf-fed female Typhlodromus pyri Scheuten 11 assessed as mortality at 17.5 mg/l sprayed on leaf disks measured after 3 days; conditions: Scheuten 11, foliar, 72 h
# [20] = test system: Typhlodromus pyri; test: Miticidal activity against compound treated Phaseolus vulgaris leaf-fed female Typhlodromus pyri Scheuten 2 assessed as mortality at 17.5 mg/l sprayed on leaf disks measured after 3 days; conditions: Scheuten 2, foliar, 72 h
# [21] = test system: Typhlodromus pyri; test: Miticidal activity against compound treated Phaseolus vulgaris leaf-fed female Typhlodromus pyri Scheuten 13 assessed as mortality at 17.5 mg/l sprayed on leaf disks measured after 3 days; conditions: Scheuten 13, foliar, 72 h
# [22] = test system: Typhlodromus pyri; test: Miticidal activity against compound treated Phaseolus vulgaris leaf-fed female Typhlodromus pyri Scheuten 1 assessed as mortality at 17.5 mg/l sprayed on leaf disks measured after 3 days; conditions: Scheuten 1, foliar, 72 h
# [23] = test system: Typhlodromus pyri; test: Miticidal activity against compound treated Phaseolus vulgaris leaf-fed female Typhlodromus pyri Scheuten 3 assessed as mortality at 17.5 mg/l sprayed on leaf disks measured after 3 days; conditions: Scheuten 3, foliar, 72 h
# [24] = test system: Typhlodromus pyri; test: Miticidal activity against compound treated Phaseolus vulgaris leaf-fed female Typhlodromus pyri Scheuten 7 assessed as mortality at 17.5 mg/l sprayed on leaf disks measured after 3 days; conditions: Scheuten 7, foliar, 72 h
# [25] = test system: Typhlodromus pyri; test: Miticidal activity against compound treated Phaseolus vulgaris leaf-fed female Typhlodromus pyri Scheuten 10 assessed as mortality at 17.5 mg/l sprayed on leaf disks measured after 3 days; conditions: Scheuten 10, foliar, 72 h
# [26] = test system: Typhlodromus pyri; test: Miticidal activity against compound treated Phaseolus vulgaris leaf-fed female Typhlodromus pyri Scheuten 5 assessed as mortality at 17.5 mg/l sprayed on leaf disks measured after 3 days; conditions: Scheuten 5, foliar, 72 h
smiles,measurement,setting,value
CCOP(=S)(OCC)Oc1nc(Cl)c(Cl)cc1Cl [CHLORPYRIFOS],mortality at 855 µg/mL,[1],32.5%
same,mortality at 855 µg/mL,[2],56.2%
same,mortality at 855 µg/mL,[3],23.6%
same,mortality at 855 µg/mL,[4],40.9%
same,mortality at 855 µg/mL,[5],55.5%
same,mortality at 855 µg/mL,[6],74%
same,mortality at 855 µg/mL,[7],8.3%
same,mortality at 855 µg/mL,[8],7.6%
same,mortality at 855 µg/mL,[9],33.3%
same,mortality at 855 µg/mL,[10],10.4%
same,mortality at 855 µg/mL,[11],25.9%
same,mortality at 855 µg/mL,[12],41.1%
same,mortality at 855 µg/mL,[13],7.9%
CC1(C)[C@H](C(=O)O[C@H](C#N)c2cccc(Oc3ccccc3)c2)[C@@H]1C=C(Br)Br [DELTAMETHRIN],mortality at 17.5 µg/mL,[14],74%
same,mortality at 17.5 µg/mL,[15],5.3%
same,mortality at 17.5 µg/mL,[16],31.2%
same,mortality at 17.5 µg/mL,[17],84.3%
same,mortality at 17.5 µg/mL,[18],20.6%
same,mortality at 17.5 µg/mL,[19],62.9%
same,mortality at 17.5 µg/mL,[20],92%
same,mortality at 17.5 µg/mL,[21],75%
same,mortality at 17.5 µg/mL,[22],90.2%
same,mortality at 17.5 µg/mL,[23],61.8%
same,mortality at 17.5 µg/mL,[24],23.6%
same,mortality at 17.5 µg/mL,[25],100%
same,mortality at 17.5 µg/mL,[26],86.1%
